Measurements published in publication PMC12248599, “Exploring the Bioavailability of Red Grape Skin Extract Polyphenols: A Caco-2 Cell Model Study” (Foods, 2025).
Where “and” joins values, the source holds several entries; their conditions need not be identical. Identical values can stand only once. Entries after “also recorded” stand apart in the source; their conditions may differ. Marks after values point to notes of the source that are not given here.

System: Caco-2 cell monolayer
Experiment: Caco-2 monolayer transport (bioavailability) study, AB and BA directions
Assay type: in vitro ADME, Homo sapiens
Conditions: for TE (%) transport efficiency: after 180 min; for detection at the acceptor side of the Caco-2 cell monolayer: AB and BA experiments; for reduction in concentration on the basolateral (donor) side / reduction in concentration on the apical (donor) side: 0 to 180 min
Protocol: A reversed phase C18 column (Luna 5 μm C18(2) 100 Å, LC Column 250 × 4.6 mm, Phenomenex) was used to separate the polyphenols at a flow rate of 0.7 mL/min with an injection volume of 60 µL. The detection was carried out at 520 nm for anthocyanins (M3G, D3G and Pet3G), at 328 nm for CA, at 356 nm for flavonols (Q3G, K3Gal and K3G) and at 280 nm for GA and SA. The mobile phases were (A) acetonitrile 100% and (B) water 0.1% trifluoroacetic acid (v/v). The gradient was programmed as follows: 10% A 0 min, 10–80% A (0–20 min), 80–100% A (20–25 min), 100% A (25–30 min); 10% A (30–35 min) and 10% A (35–40 min). Every polyphenol was quantified using the corresponding reference standard calibration curve. Each of the quantified phenolic compound concentration was expressed as mg/mL
For the transport experiment Caco-2 cells were cultured at a density of 4 × 10^4 cells/cm^2 in Transwell inserts (12 mm i.d., 1.12 cm^2 growth area, 0.4 µm mean pore size polycarbonate membranes, Corning Inc., Milwaukee, WI, USA) placed in 12-well plates. Caco-2 cells were grown in DMEM in an incubator at 37 °C in a humidified atmosphere containing 5% CO2.
Bioavailability studies were performed in triplicate after 21 days of cell growth. Only inserts with stable TEER values higher than ≥300 Ω cm^2 were considered acceptable to perform the bioavailability study. For that purpose, DMEM media was removed, the monolayer was washed with PBS and HBSS was supplied to the cells.
Likewise, the GSE stock solution was diluted in HBSS medium to prepare GSE solutions S1 and S2. GSE solutions S1 and S2 had concentrations of 15 mg/mL and 22 mg/mL, respectively. These concentrations were established considering previous studies with grape pomace extracts that concluded that intestinal concentrations of 1–2% (w/v) show potential bioactivities and are safe to be used as a food ingredient.
The apical side represents the intestinal lumen and the basolateral side represents the bloodstream. Each sample (100 µL) was immediately acidified with 1M HCl to a final concentration of 0.007 M and subsequently frozen at −20 °C until analysis by HPLC (according to the method described in Section 2.5). Each experiment was carried out on 3 individual wells. The transport efficiency (TE) percentage was calculated according to Equation (2):Transport efficiency (%) = (C/C0) × 100(2) where, C is the polyphenol concentration at the acceptor side over time and C0 is the initial concentration at the donor side. TE values were calculated for the nine polyphenols identified in the grape skin extract.
The apparent permeability coefficient (Papp) of the polyphenols in GSE was calculated for apical to basolateral side (AB) and basolateral to apical side (BA) flux studies according to Equation (3):Papp (cm/s) = (dQ/dt) × (VR/AC0)(3) where, dQ/dt is the permeability rate which means the steady-state linear rate of change of concentration (mg/L) per second (s) at the acceptor side; A is the surface area of the cell monolayer (1.12 cm^2). C0 is the initial concentration at the donor side (mg/L) at t = 0 s and VR is the volume of the solution of the acceptor side (mL).
The efflux ratio (ER) of the polyphenol was assessed by calculating the Equation (4):ER = Papp (BA)/Papp (AB)(4) where, Papp (BA) is the apparent permeability coefficient of the polyphenol from basolateral to apical side and Papp (AB) is the apparent permeability coefficient from apical to basolateral side. ER is a measure of the relative contributions of active and passive transport to bi-direction flux across the cell monolayer.

[1] = AB experiment, donor side, S1 (15 mg/mL GSE)
[2] = AB experiment, donor side, S2 (22 mg/mL GSE)
[3] = BA experiment, S1 (15 mg/mL GSE)
[4] = BA experiment, S2 (22 mg/mL GSE)
[5] = BA experiment, acceptor side, S1 (15 mg/mL GSE)
[6] = BA experiment, acceptor side, S2 (22 mg/mL GSE)
[7] = BA experiment, donor side, S1 (15 mg/mL GSE)
[8] = BA experiment, donor side, S2 (22 mg/mL GSE)

| Apical Side 0 min [1] | Apical Side 75 min [1] | Apical Side 90 min [1] | Apical Side 115 min [1] | Apical Side 180 min [1] | Apical Side 0 min [2] | Apical Side 75 min [2] | Apical Side 90 min [2] | Apical Side 115 min [2] | Apical Side 180 min [2] | Basolateral Side 0 min [7] | Basolateral Side 75 min [7] | Basolateral Side 90 min [7] | Basolateral Side 115 min [7] | Basolateral Side 180 min [7] | Basolateral Side 0 min [8] | Basolateral Side 75 min [8] | Basolateral Side 90 min [8] | Basolateral Side 115 min [8] | Basolateral Side 180 min [8] | SMILES | further results |
| --- | --- | --- | --- | --- | --- | --- | --- | --- | --- | --- | --- | --- | --- | --- | --- | --- | --- | --- | --- | --- | --- |
| 0.23 ± 0.01 ^a mg/L | 0.18 ± 0.01 ^b mg/L | 0.14 ± 0.01 ^c mg/L | 0.10 ± 0.00 ^d mg/L | 0.08 ± 0.00 ^c mg/L | 0.61 ± 0.01 ^a mg/L | 0.52 ± 0.01 ^b mg/L | 0.47 ± 0.01 ^c mg/L | 0.41 ± 0.01 ^d mg/L | 0.37 ± 0.01 ^c mg/L | 0.28 ± 0.02 ^a mg/L | 0.24 ± 0.02 ^b mg/L | 0.21 ± 0.02 ^c mg/L | 0.18 ± 0.01 ^d mg/L | 0.15 ± 0.01 ^c mg/L | 0.41 ± 0.03 ^a mg/L | 0.38 ± 0.03 ^a,b mg/L | 0.36 ± 0.03 ^a,b,c mg/L | 0.34 ± 0.03 ^b,c mg/L | 0.32 ± 0.03 ^c mg/L | O=c1c(O[C@@H]2O[C@H](CO)[C@@H](O)[C@H](O)[C@H]2O)c(-c2ccc(O)c(O)c2)oc2cc(O)cc(O)c12 [Q3G, quercetin-3-glucoside] | detection at the acceptor side (AB experiments, basolateral side): not detected; TE (%) transport efficiency [3]: 4.1 ± 0.1%; TE (%) transport efficiency [4]: 3.6 ± 0.1%; Apical Side 75 min [5]: 0.009 ± 0.001 ^b mg/L; Apical Side 90 min [5]: 0.010 ± 0.001 ^b,c mg/L; Apical Side 115 min [5]: 0.011 ± 0.001 ^c mg/L; Apical Side 180 min [5]: 0.011 ± 0.001 ^c mg/L; Apical Side 75 min [6]: 0.013 ± 0.001 ^b mg/L; Apical Side 90 min [6]: 0.013 ± 0.001 ^b,c mg/L; Apical Side 115 min [6]: 0.014 ± 0.001 ^c,d mg/L; Apical Side 180 min [6]: 0.015 ± 0.001 ^d mg/L; detection at the acceptor side (BA experiments, apical side): detected; also recorded: quantified |
| 0.63 ± 0.02 ^a mg/L | 0.52 ± 0.02 ^b mg/L | 0.45 ± 0.02 ^c mg/L | 0.39 ± 0.01 ^d mg/L | 0.35 ± 0.01 ^c mg/L | 1.23 ± 0.02 ^a mg/L | 1.09 ± 0.02 ^b mg/L | 1.01 ± 0.02 ^c mg/L | 0.88 ± 0.02 ^d mg/L | 0.79 ± 0.02 ^c mg/L | 0.26 ± 0.01 mg/L and 0.26 ± 0.01 ^a mg/L | 0.19 ± 0.01 ^b mg/L | 0.13 ± 0.01 ^c mg/L | 0.08 ± 0.01 ^d mg/L | 0.05 ± 0.01 mg/L and 0.05 ± 0.01 ^c mg/L | 0.79 ± 0.02 ^a mg/L | 0.75 ± 0.02 ^b mg/L | 0.71 ± 0.02 ^c mg/L | 0.67 ± 0.02 ^d mg/L | 0.64 ± 0.01 ^c mg/L | O=c1c(OC2O[C@H](CO)[C@H](O)[C@H](O)[C@H]2O)c(-c2ccc(O)cc2)oc2cc(O)cc(O)c12 (stereo partly shown) [K3Gal, kaempferol-3-galactoside] | detection at the acceptor side of the Caco-2 cell monolayer: not detected; reduction in concentration on the basolateral (donor) side [3]: 81 ± 2% |
| 2.1 ± 0.2 ^a mg/L | 1.9 ± 0.2 ^a,b mg/L | 1.8 ± 0.1 ^b,c mg/L | 1.6 ± 0.1 ^c mg/L | 1.5 ± 0.1 ^c mg/L | 4.7 ± 0.1 ^a mg/L | 4.4 ± 0.1 ^b mg/L | 4.3 ± 0.1 ^c mg/L | 4.05 ± 0.09 ^c mg/L | 3.94 ± 0.08 ^c mg/L | 2.7 ± 0.2 ^a mg/L | 2.6 ± 0.2 ^a,b mg/L | 2.5 ± 0.2 ^b,c mg/L | 2.4 ± 0.2 ^b,c mg/L | 2.3 ± 0.2 ^c mg/L | 3.6 ± 0.2 ^a mg/L | 3.5 ± 0.2 ^a mg/L | 3.4 ± 0.2 ^a mg/L | 3.4 ± 0.2 ^d mg/L | 3.4 ± 0.2 ^a mg/L | OC[C@H]1O[C@@H](Oc2cc3c(O)cc(O)cc3[o+]c2-c2cc(O)c(O)c(O)c2)[C@H](O)[C@@H](O)[C@@H]1O [D3G, delphinidin-3-O-glucoside] | detection at the acceptor side of the Caco-2 cell monolayer: not detected |

| SMILES | Apical Side 0 min [1] | Apical Side 75 min [1] | Apical Side 90 min [1] | Apical Side 115 min [1] | Apical Side 180 min [1] | Apical Side 0 min [2] | Apical Side 75 min [2] | Apical Side 90 min [2] | Apical Side 115 min [2] | Apical Side 180 min [2] | Basolateral Side 0 min [7] | Basolateral Side 75 min [7] | Basolateral Side 90 min [7] | Basolateral Side 115 min [7] | Basolateral Side 180 min [7] | Basolateral Side 0 min [8] | Basolateral Side 75 min [8] | Basolateral Side 90 min [8] | Basolateral Side 115 min [8] | Basolateral Side 180 min [8] | further results |
| --- | --- | --- | --- | --- | --- | --- | --- | --- | --- | --- | --- | --- | --- | --- | --- | --- | --- | --- | --- | --- | --- |
| COc1cc(C(=O)O)cc(OC)c1O [SA, syringic acid] | 0.70 ± 0.03 mg/L and 0.70 ± 0.03 ^a mg/L | 0.54 ± 0.03 ^b mg/L | 0.42 ± 0.03 ^c mg/L | 0.32 ± 0.03 ^d mg/L | 0.23 ± 0.03 mg/L and 0.23 ± 0.03 ^c mg/L | 1.48 ± 0.06 mg/L and 1.48 ± 0.06 ^a mg/L | 1.21 ± 0.04 ^b mg/L | 1.03 ± 0.03 ^c mg/L | 0.82 ± 0.02 ^d mg/L | 0.67 ± 0.03 mg/L and 0.67 ± 0.03 ^c mg/L | 0.84 ± 0.08 ^a mg/L | 0.72 ± 0.07 ^a,b mg/L | 0.63 ± 0.07 ^b,c mg/L | 0.53 ± 0.06 ^c,d mg/L | 0.44 ± 0.06 ^d mg/L | 1.1 ± 0.1 ^a mg/L | 1.10 ± 0.09 ^a,b mg/L | 1.03 ± 0.09 ^a,b,c mg/L | 0.96 ± 0.08 ^b,c mg/L | 0.90 ± 0.08 mg/L and 0.901 ± 0.08 ^c mg/L | detection at the acceptor side of the Caco-2 cell monolayer: not detected; reduction in concentration on the apical (donor) side (AB experiment, S1 (15 mg/mL GSE)): 67 ± 4%; reduction in concentration on the apical (donor) side (AB experiment, S2 (22 mg/mL GSE)): 55 ± 2%; reduction in concentration on the basolateral (donor) side [4]: 23 ± 1%; detection at the acceptor side (BA experiments, apical side): detected |
